Patent US20030232986A1, “Inhibitors of caspases” (Vertex Pharmaceuticals Incorporated, priority 1998, published 2003)

Target: T1, Caspase-4 (Homo sapiens, UniProt P49662)
T1 sequence (P49662 81-270 limits assumed): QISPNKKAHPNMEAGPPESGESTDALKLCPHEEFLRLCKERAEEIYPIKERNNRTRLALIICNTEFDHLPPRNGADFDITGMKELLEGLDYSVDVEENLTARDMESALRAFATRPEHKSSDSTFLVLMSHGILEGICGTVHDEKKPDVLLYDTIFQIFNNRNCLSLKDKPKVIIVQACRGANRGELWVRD
T1 sequence (P49662 290-377 limits assumed): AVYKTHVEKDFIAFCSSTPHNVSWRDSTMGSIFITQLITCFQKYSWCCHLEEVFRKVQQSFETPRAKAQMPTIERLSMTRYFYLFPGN
Assay: Caspase-4 enzyme inhibition (Ki)
Assay type: biochemical
Settings: substrate Ac-WEHD-AMC 20 μM, 37° C.
Method: Ki values for test compounds with the various caspases were obtained by the method of Margolin et al. (J. Biol. Chem., 272 pp. 7223-7228 (1997)). Assays were performed in 10 mM Tris (Sigma Corp, St Louis Mo.) pH 7.5, 1 mM Dithiothreitol (DTT, Research Organic INC, Cleveland, Ohio) and 0.1% CHAPS (Pierce, Rockford Ill.) at 37° C. For caspase-3, a solution of 8% glycerol was added to the assay buffer to improve enzyme stability. A 65 μL aliquot of the assay buffer and 5 μL aliquot of the appropriate dilutions of inhibitor in DMSO where pipetted into a 96 well plate, treated with 10 μL of caspase, then diluted in assay buffer (0.5-40 nM active protein by active site titration). A control containing DMSO but no compound was included for each determination. The plates were then incubated for 15 minutes at 37° C., before addition of the appropriate substrate (20 μL, final concentration 1-4×KM, final assay volume 100 μL) to initiate the reaction. Reaction rates were measured at 37° C. either by following the time dependant increase in absorbance at 405 nm (for the pNA substrates) or in fluorescence (Ex 390, Em 460) (for the AMC substrates). The rates obtained were plotted against inhibitor concentration and the data fit to the Morrison tight-binding equation for competitive inhibitors (Morrison, J. F., Biochem. Biophys. Acta, 185 pp. 269-286 (1969)). […]

Ki [nM]	Compound
< 10	C[C@H](NC(=O)c1ccc(N)c(Cl)c1)C(=O)N1CCC[C@H]1C(=O)N[C@H](C=O)CC(=O)O [Example 122b, 3-({-[2-(4-Amino-3-chloro-benzoylamino)-propionyl]-pyrrolidine-2-carbonyl}-amino)-4-oxo-butyric acid]
< 10	COc1c(C)cc(C(=O)N[C@@H](C)C(=O)N2CCC[C@H]2C(=O)N[C@H](C=O)CC(=O)O)cc1C [Example 122d, 3-({1-[2-(4-Methoxy-3,5-dimethyl-benzoylamino)-propionyl]-pyrrolidine-2-carbonyl}-amino)-4-oxo-butyric acid]
